Source: ChEMBL document CHEMBL4507290 (2021)

Experiments:
[1] = target: Activin receptor type-1-like (Homo sapiens) (UniProt P37023); conditions: Compound concentration 1000.0 nM
[2] = target: ALK tyrosine kinase receptor (Homo sapiens) (UniProt Q9UM73); conditions: Compound concentration 1000.0 nM
[3] = target: Bone morphogenetic protein receptor type-1B (Homo sapiens) (UniProt O00238); conditions: Compound concentration 1000.0 nM
[4] = target: Cyclin-dependent kinase 13 (Homo sapiens) (UniProt Q14004); conditions: Compound concentration 1000.0 nM
[5] = target: Cyclin-dependent kinase-like 1 (Homo sapiens) (UniProt Q00532); conditions: Compound concentration 1000.0 nM
[6] = target: Serine/threonine-protein kinase Chk2 (Homo sapiens) (UniProt O96017); conditions: Compound concentration 1000.0 nM
[7] = target: Macrophage colony-stimulating factor 1 receptor (Homo sapiens) (UniProt P07333); conditions: Compound concentration 1000.0 nM
[8] = target: Casein kinase I isoform epsilon (Homo sapiens) (UniProt P49674); conditions: Compound concentration 1000.0 nM
[9] = target: Serine/threonine-protein kinase DCLK1 (Homo sapiens) (UniProt O15075); conditions: Compound concentration 1000.0 nM
[10] = target: Dual specificity tyrosine-phosphorylation-regulated kinase 1B (Homo sapiens) (UniProt Q9Y463); conditions: Compound concentration 1000.0 nM
[11] = target: Ephrin type-A receptor 3 (Homo sapiens) (UniProt P29320); conditions: Compound concentration 1000.0 nM
[12] = target: Ephrin type-A receptor 7 (Homo sapiens) (UniProt Q15375); conditions: Compound concentration 1000.0 nM
[13] = target: Receptor tyrosine-protein kinase erbB-4 (Homo sapiens) (UniProt Q15303); conditions: Compound concentration 1000.0 nM
[14] = target: Mitogen-activated protein kinase 1 (Homo sapiens) (UniProt P28482); conditions: Compound concentration 1000.0 nM
[15] = target: Mitogen-activated protein kinase 6 (Homo sapiens) (UniProt Q16659); conditions: Compound concentration 1000.0 nM
[16] = target: Fibroblast growth factor receptor 1 (Homo sapiens) (UniProt P11362); conditions: Compound concentration 1000.0 nM
[17] = target: Tyrosine-protein kinase Fyn (Homo sapiens) (UniProt P06241); conditions: Compound concentration 1000.0 nM
[18] = target: Serine/threonine-protein kinase ICK (Homo sapiens) (UniProt Q9UPZ9); conditions: Compound concentration 1000.0 nM
[19] = target: Interleukin-1 receptor-associated kinase 3 (Homo sapiens) (UniProt Q9Y616); conditions: Compound concentration 1000.0 nM
[20] = target: Tyrosine-protein kinase Lck (Homo sapiens) (UniProt P06239); conditions: Compound concentration 1000.0 nM
[21] = target: Myosin light chain kinase (Homo sapiens) (UniProt Q32MK0); conditions: Compound concentration 1000.0 nM
[22] = target: Mitogen-activated protein kinase kinase kinase 11 (Homo sapiens) (UniProt Q16584); conditions: Compound concentration 1000.0 nM
Sequence of Mitogen-activated protein kinase kinase kinase 11 (Homo sapiens) (Q16584 whole entry, looked up): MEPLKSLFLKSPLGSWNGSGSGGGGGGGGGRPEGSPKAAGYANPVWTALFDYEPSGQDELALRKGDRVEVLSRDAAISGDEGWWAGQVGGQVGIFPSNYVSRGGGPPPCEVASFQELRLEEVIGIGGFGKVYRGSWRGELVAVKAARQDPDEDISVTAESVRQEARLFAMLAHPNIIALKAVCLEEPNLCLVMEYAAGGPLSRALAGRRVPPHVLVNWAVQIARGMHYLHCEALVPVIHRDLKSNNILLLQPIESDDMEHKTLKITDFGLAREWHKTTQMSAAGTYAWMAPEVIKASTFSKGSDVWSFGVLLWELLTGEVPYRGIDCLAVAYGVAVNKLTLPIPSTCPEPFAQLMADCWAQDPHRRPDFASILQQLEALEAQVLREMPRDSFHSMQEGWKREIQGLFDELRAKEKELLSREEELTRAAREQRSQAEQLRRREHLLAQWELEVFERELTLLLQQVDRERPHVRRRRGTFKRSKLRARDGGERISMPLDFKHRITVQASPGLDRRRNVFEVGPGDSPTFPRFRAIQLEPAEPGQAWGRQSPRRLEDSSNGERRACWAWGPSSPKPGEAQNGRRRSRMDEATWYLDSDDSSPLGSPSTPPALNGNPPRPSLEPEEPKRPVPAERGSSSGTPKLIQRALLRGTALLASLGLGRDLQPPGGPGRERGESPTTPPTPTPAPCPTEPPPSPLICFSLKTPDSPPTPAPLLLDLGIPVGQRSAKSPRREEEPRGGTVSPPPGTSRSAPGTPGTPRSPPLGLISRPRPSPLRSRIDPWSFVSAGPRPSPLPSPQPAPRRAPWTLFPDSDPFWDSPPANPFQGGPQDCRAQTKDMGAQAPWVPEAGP

[23] = target: Serine/threonine-protein kinase 38-like (Homo sapiens) (UniProt Q9Y2H1); conditions: Compound concentration 1000.0 nM
[24] = target: Serine/threonine-protein kinase PAK 3 (Homo sapiens) (UniProt O75914); conditions: Compound concentration 1000.0 nM
[25] = target: Cyclin-dependent kinase 17 (Homo sapiens) (UniProt Q00537); conditions: Compound concentration 1000.0 nM
Sequence of Cyclin-dependent kinase 17 (Homo sapiens) (Q00537 whole entry, looked up): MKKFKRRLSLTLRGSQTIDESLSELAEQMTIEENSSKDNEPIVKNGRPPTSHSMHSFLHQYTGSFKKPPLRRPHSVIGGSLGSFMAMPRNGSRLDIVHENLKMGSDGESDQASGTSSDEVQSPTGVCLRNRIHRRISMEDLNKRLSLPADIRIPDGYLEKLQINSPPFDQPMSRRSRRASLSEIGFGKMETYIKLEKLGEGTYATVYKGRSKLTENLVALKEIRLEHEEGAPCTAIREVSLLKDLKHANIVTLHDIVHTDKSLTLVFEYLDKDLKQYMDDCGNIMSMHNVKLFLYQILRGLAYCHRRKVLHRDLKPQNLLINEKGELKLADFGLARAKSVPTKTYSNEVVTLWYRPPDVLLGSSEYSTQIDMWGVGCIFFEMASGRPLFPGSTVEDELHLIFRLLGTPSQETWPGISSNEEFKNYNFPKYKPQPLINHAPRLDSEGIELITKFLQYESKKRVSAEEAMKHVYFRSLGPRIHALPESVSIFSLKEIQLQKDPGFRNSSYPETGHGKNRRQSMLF

[26] = target: Cyclin-dependent kinase 15 (Homo sapiens) (UniProt Q96Q40); conditions: Compound concentration 1000.0 nM
[27] = target: Phosphorylase b kinase regulatory subunit alpha, liver isoform (Homo sapiens) (UniProt P46019); conditions: Compound concentration 1000.0 nM
[28] = target: Phosphatidylinositol 4-phosphate 3-kinase C2 domain-containing subunit beta (Homo sapiens) (UniProt O00750); conditions: Compound concentration 1000.0 nM
Sequence of Phosphatidylinositol 4-phosphate 3-kinase C2 domain-containing subunit beta (Homo sapiens) (O00750 whole entry, the tested form may be a part, canonical isoform): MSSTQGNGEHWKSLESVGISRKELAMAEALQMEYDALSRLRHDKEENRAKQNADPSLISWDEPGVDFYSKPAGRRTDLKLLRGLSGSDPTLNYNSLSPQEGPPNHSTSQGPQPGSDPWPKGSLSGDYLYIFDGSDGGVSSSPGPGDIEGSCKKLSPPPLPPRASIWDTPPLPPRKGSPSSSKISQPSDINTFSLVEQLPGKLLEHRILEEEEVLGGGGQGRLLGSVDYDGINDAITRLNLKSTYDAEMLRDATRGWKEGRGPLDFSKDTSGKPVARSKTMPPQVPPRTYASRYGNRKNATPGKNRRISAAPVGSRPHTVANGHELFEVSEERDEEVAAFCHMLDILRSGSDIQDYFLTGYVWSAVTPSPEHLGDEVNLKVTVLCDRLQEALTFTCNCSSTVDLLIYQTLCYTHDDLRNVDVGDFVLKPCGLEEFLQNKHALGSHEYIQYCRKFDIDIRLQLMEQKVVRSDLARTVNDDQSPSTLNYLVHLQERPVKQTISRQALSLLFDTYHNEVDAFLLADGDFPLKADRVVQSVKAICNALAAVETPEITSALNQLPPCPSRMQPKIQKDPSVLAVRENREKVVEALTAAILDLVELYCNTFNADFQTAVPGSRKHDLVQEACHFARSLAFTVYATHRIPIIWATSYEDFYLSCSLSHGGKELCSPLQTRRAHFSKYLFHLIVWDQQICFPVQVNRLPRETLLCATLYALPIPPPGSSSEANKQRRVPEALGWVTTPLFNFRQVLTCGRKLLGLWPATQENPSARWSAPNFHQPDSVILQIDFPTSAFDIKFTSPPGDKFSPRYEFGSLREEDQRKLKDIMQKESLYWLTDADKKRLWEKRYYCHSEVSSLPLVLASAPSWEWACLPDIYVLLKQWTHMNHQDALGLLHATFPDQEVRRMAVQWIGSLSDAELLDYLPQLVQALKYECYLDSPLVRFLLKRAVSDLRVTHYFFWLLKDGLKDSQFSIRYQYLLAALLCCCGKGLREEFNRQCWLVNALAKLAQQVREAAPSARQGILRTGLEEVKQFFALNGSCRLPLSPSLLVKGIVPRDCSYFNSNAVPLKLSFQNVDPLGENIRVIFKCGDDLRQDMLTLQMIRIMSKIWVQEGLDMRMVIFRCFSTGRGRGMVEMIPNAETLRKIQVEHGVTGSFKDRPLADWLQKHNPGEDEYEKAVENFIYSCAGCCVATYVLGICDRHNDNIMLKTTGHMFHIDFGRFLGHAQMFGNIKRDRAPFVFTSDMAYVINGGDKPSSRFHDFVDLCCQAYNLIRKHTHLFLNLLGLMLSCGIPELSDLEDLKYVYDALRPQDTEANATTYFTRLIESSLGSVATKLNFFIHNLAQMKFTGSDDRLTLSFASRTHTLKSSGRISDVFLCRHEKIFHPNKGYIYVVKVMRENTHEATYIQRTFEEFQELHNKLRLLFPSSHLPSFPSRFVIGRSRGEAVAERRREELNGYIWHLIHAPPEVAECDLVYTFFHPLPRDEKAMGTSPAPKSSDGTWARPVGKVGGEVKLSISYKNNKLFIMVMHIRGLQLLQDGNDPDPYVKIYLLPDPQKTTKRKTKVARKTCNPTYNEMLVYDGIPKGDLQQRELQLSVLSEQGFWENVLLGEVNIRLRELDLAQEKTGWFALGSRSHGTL

[29] = target: Phosphatidylinositol 4,5-bisphosphate 3-kinase catalytic subunit alpha isoform (Homo sapiens) (UniProt P42336); conditions: Compound concentration 1000.0 nM
[30] = tested on: Phosphatidylinositol 4,5-bisphosphate 3-kinase catalytic subunit alpha isoform (Homo sapiens), P42336 [Q546K]; conditions: Compound concentration 1000.0 nM
[31] = target: Serine/threonine-protein kinase PLK1 (Homo sapiens) (UniProt P53350); conditions: Compound concentration 1000.0 nM
[32] = target: Receptor-interacting serine/threonine-protein kinase 1 (Homo sapiens) (UniProt Q13546); conditions: Compound concentration 1000.0 nM
[33] = target: Ribosomal protein S6 kinase alpha-1 (Homo sapiens) (UniProt Q15418); conditions: Compound concentration 1000.0 nM
[34] = target: Ribosomal protein S6 kinase alpha-3 (Homo sapiens) (UniProt P51812); conditions: Compound concentration 1000.0 nM
Sequence of Ribosomal protein S6 kinase alpha-3 (Homo sapiens) (P51812 whole entry): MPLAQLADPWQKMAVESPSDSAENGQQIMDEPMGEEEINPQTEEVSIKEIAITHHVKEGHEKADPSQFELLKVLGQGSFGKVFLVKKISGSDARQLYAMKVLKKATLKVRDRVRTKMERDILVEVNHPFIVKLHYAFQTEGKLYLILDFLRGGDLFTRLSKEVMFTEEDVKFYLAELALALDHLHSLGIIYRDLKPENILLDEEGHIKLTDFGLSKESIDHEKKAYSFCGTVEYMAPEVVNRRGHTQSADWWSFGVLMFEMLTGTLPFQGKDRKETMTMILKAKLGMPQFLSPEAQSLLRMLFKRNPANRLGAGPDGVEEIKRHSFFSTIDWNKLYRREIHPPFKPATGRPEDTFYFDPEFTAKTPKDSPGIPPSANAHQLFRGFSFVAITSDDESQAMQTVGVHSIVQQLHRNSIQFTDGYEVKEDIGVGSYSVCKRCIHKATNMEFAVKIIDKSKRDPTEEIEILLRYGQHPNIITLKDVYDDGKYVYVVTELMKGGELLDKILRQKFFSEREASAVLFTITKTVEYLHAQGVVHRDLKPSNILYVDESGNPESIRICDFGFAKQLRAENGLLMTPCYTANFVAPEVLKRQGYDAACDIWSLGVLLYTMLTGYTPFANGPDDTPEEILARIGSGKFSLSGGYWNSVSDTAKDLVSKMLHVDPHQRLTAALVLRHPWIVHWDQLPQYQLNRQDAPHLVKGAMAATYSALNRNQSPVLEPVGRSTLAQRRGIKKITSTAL

[35] = target: Ribosomal protein S6 kinase alpha-3 (Homo sapiens) (UniProt P51812); conditions: Compound concentration 1000.0 nM; remark: listed apart in the source
[36] = target: NUAK family SNF1-like kinase 2 (Homo sapiens) (UniProt Q9H093); conditions: Compound concentration 1000.0 nM
[37] = target: STE20/SPS1-related proline-alanine-rich protein kinase (Homo sapiens) (UniProt Q9UEW8); conditions: Compound concentration 1000.0 nM
[38] = target: Serine/threonine-protein kinase TAO2 (Homo sapiens) (UniProt Q9UL54); conditions: Compound concentration 1000.0 nM
[39] = target: Serine/threonine-protein kinase TNNI3K (Homo sapiens) (UniProt Q59H18); conditions: Compound concentration 1000.0 nM
[40] = target: BDNF/NT-3 growth factors receptor (Homo sapiens) (UniProt Q16620); conditions: Compound concentration 1000.0 nM
[41] = target: Wee1-like protein kinase 2 (Homo sapiens) (UniProt P0C1S8); conditions: Compound concentration 1000.0 nM
[42] = target: Serine/threonine-protein kinase WNK4 (Homo sapiens) (UniProt Q96J92); conditions: Compound concentration 1000.0 nM
Sequence of Serine/threonine-protein kinase WNK4 (Homo sapiens) (Q96J92 whole entry): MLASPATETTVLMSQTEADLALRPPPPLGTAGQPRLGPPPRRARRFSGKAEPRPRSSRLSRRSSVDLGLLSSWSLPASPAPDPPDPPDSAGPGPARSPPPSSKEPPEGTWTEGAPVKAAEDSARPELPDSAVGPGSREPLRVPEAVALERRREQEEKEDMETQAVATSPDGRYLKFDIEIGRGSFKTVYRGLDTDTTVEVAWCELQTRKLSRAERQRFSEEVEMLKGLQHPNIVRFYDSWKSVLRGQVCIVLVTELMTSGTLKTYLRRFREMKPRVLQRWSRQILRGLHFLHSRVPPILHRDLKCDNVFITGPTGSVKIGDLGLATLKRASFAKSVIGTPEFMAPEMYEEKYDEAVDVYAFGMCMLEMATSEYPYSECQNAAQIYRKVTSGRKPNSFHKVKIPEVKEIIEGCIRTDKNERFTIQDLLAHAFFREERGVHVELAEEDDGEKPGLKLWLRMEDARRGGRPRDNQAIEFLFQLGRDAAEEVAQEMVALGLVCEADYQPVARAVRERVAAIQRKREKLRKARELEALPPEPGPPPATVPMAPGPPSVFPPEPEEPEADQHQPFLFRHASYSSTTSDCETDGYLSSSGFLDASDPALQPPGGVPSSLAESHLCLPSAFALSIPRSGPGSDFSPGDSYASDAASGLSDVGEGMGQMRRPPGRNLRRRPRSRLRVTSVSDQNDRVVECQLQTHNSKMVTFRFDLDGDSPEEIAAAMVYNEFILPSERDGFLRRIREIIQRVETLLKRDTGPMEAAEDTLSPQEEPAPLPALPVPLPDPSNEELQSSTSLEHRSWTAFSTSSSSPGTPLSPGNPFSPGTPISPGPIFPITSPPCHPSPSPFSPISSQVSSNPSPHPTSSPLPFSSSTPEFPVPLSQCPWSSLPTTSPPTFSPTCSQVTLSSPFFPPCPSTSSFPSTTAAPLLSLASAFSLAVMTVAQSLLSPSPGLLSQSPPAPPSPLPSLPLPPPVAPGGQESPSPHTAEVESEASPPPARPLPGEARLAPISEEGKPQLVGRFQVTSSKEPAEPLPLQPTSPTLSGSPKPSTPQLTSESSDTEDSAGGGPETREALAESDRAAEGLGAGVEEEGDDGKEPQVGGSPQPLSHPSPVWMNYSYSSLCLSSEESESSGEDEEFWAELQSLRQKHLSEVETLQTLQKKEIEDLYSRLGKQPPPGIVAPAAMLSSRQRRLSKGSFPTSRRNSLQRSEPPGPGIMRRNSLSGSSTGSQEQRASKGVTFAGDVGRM

[43] = target: Serine/threonine-protein kinase 32C (Homo sapiens) (UniProt Q86UX6); conditions: Compound concentration 1000.0 nM
[44] = target: Tyrosine-protein kinase Yes (Homo sapiens) (UniProt P07947); conditions: Compound concentration 1000.0 nM
[45] = target: Beta-1 adrenergic receptor (Homo sapiens) (UniProt P08588); conditions: Compound concentration 10.0 uM

In the case of `CN([C@@H]1CCc2c(CC(=O)O)c3cc(S(C)(=O)=O)ccc3n2C1)S(=O)(=O)c1ccc(F)cc1`, the residual activity [1] is reported as 100%, the residual activity [2] is reported as 80% and the residual activity [3] is reported as 100%. It also gave a residual activity [4] of 86%, a residual activity [5] of 100% and a residual activity [6] of 100%. The residual activity [7] was 93%, the residual activity [8] was 96% and the residual activity [9] was 79%. For the same compound, the residual activity [10] was 36%, the residual activity [11] was 97% and the residual activity [12] was 100%. The residual activity [13] was 100%, the residual activity [14] was 77% and the residual activity [15] was 100%. For the same compound, the residual activity [16] was 100%, the residual activity [17] was 99% and the residual activity [18] was 93%. For the same compound, the residual activity [19] was 100%, the residual activity [20] was 100% and the residual activity [21] was 100%. It also gave a residual activity [22] of 100%, a residual activity [23] of 88% and a residual activity [24] of 79%. It also gave a residual activity [25] of 100%, a residual activity [26] of 84% and a residual activity [27] of 100%. For the same compound, the residual activity [28] was 100%, the residual activity [29] was 100% and the residual activity [30] was 100%. The residual activity [31] was 93%, the residual activity [32] was 93% and the residual activity [33] was 91%. The residual activity [34] was 80%, the residual activity [35] was 81% and the residual activity [36] was 87%. The residual activity [37] was 86%, the residual activity [38] was 100% and the residual activity [39] was 100%. It also gave a residual activity [40] of 100%, a residual activity [41] of 95% and a residual activity [42] of 100%. The residual activity [43] was 100%, the residual activity [44] was 88% and the inhibition [45] was -6.18%.
Compound `CN([C@@H]1CCc2c(CC(=O)O)c3ccccc3n2C1)S(=O)(=O)c1ccc(F)cc1` [MK-7246] has a residual activity [1] of 88%, a residual activity [2] of 78% and a residual activity [3] of 100%. The residual activity [4] was 95%, the residual activity [5] was 100% and the residual activity [6] was 100%. It also gave a residual activity [7] of 100%, a residual activity [8] of 90% and a residual activity [9] of 82%. The residual activity [10] was 44%, the residual activity [11] was 95% and the residual activity [12] was 100%. For the same compound, the residual activity [13] was 100%, the residual activity [14] was 97% and the residual activity [15] was 100%. The residual activity [16] was 100%, the residual activity [17] was 77% and the residual activity [18] was 100%. The residual activity [19] was 100%, the residual activity [20] was 100% and the residual activity [21] was 95%. It also gave a residual activity [22] of 100%, a residual activity [23] of 83% and a residual activity [24] of 98%. It also gave a residual activity [25] of 100%, a residual activity [26] of 100% and a residual activity [27] of 100%. The residual activity [28] was 94%, the residual activity [29] was 100% and the residual activity [30] was 100%. It also gave a residual activity [31] of 98%, a residual activity [32] of 100% and a residual activity [33] of 100%. It also gave a residual activity [34] of 100%, a residual activity [35] of 86% and a residual activity [36] of 100%. The residual activity [37] was 100%, the residual activity [38] was 82% and the residual activity [39] was 100%. The residual activity [40] was 100%, the residual activity [41] was 100% and the residual activity [42] was 100%. The residual activity [43] was 100%, the residual activity [44] was 100% and the inhibition [45] was -2.68%.
